Results published in US11285156B2, “Substituted piperazines as KRAS G12C inhibitors” (Amgen Inc., priority 2018, dated 2022).
Read-outs that look alike come from different tables or passages of the source.

Assays:
[1] = system: Phosphorylation of ERK1/2 in A549 cells; experiment: Phospho-ERK1/2 MSD assay in A549 cells; assay type: cell-based; conditions: read-out: p-ERK IC50 (2 h, A549; μM), 2 h compound treatment, A549 cells, EGF stimulated
How it was run: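 Readout: MSD phospho-ERK1/2 signal after compound (2 or 4 h) and 10 min EGF stimulation at 10 ng/mL.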

[2] = system: Phosphorylation of ERK1/2 in MIA PaCa-2 cells; experiment: Phospho-ERK1/2 MSD assay in MIA PaCa-2 cells; assay type: cell-based; conditions: read-out: p-ERK IC50 (2 h, MiaPaCa-2; μM), 2 h compound treatment, MIA PaCa-2 cells, EGF stimulated
How it was run: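 Phospho-ERK1/2 measured by MSD electrochemiluminescence kit in RIPA lysates of MIA PaCa-2 cells. Cells were treated with compound titrations for 2 or 4 h at 37 °C, 5% CO2, followed by a 10 min pulse of 10 ng/mL EGF.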

[3] = molecular target: GDP-bound KRAS protein (aa 1-169), containing both G12C and C118A amino acid substitutions (Homo sapiens (Human), UniProt P01116, C118A/G12C); experiment: Coupled nucleotide exchange assay (SOS-mediated nucleotide exchange, AlphaScreen); assay type: biochemical; conditions: read-out: Coupled exchange IC50 (5 min; μM); 5 min compound pre-incubation
Chain of GDP-bound KRAS protein (aa 1-169), containing both G12C and C118A amino acid substitutions (P01116 other isoform, or with tags, fused parts or gaps G12C/C118A): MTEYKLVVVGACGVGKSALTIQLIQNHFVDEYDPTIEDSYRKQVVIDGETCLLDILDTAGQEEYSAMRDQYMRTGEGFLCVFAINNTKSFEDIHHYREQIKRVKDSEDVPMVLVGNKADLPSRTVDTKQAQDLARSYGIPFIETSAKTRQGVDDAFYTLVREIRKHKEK

Row | SMILES | IC50 ([1]; Homo sapiens, A549, 2 h) | IC50 ([2]; Homo sapiens, MIA PaCa-2, 2 h) | IC50 [3] | IC50 [1] | IC50 [2]
1 | C=CC(=O)N1C[C@H](C)N(c2nc(=O)n(-c3c(C)ccnc3C(C)C)c3nc(-c4ccccc4NC(=O)C4CC4)c(Cl)cc23)C[C@H]1C (atropisomer, axis not shown; (M)) [Example 129-6, (M)-N-[2-[6-Chloro-4-[(2S,5R)-2,5-dimethyl-4-prop-2-enoyl-piperazin-1-yl]-1-(2-isopropyl-4-methyl-3-pyridyl)-2-oxo-pyrido[2,3-d]pyrimidin-7-yl]phenyl]cyclopropanecarboxamide] | > 7.5 µM | 0.058 µM | 0.06 µM |  | 
2 | C=CC(=O)N1C[C@H](C)N(c2nc(=O)n(-c3c(C)ccnc3C(C)C)c3nc(-c4ccccc4NC(=O)OC)c(Cl)cc23)C[C@H]1C (atropisomer, axis not shown; (M)) [Example 129-7, (M)-Methyl-N-[2-[6-chloro-4-[(2S,5R)-2,5-dimethyl-4-prop-2-enoyl-piperazin-1-yl]-1-(2-isopropyl-4-methyl-3-pyridyl)-2-oxo-pyrido[2,3-d]pyrimidin-7-yl]phenyl]carbamate] | > 7.5 µM | 0.025 µM | 0.064 µM |  | 
3 | C=CC(=O)N1C[C@H](C)N(c2nc(=O)n(-c3c(C)ccnc3C(C)C)c3nc(-c4c(F)cccc4NC(=O)OC)c(Cl)cc23)C[C@H]1C (atropisomer, axis not shown; (M)) [Example 129-8, (M)-Methyl N-[2-[6-chloro-4-[(2S,5R)-2,5-dimethyl-4-prop-2-enoyl-piperazin-1-yl]-1-(2-isopropyl-4-methyl-3-pyridyl)-2-oxo-pyrido[2,3-d]pyrimidin-7-yl]-3-fluoro-phenyl]carbamate] | > 7.5 µM | 0.023 µM | 0.056 µM |  | 
4 | C=CC(=O)N1C[C@H](C)N(c2nc(=O)n(-c3c(C)ccnc3C(C)C)c3nc(-c4c(F)cccc4NC(=O)C4CC4)c(Cl)cc23)C[C@H]1C (atropisomer, axis not shown; (M)) [Example 129-9, (M)-N-[2-[6-Chloro-4-[(2S,5R)-2,5-dimethyl-4-prop-2-enoyl-piperazin-1-yl]-1-(2-isopropyl-4-methyl-3-pyridyl)-2-oxo-pyrido[2,3-d]pyrimidin-7-yl]-3-fluoro-phenyl]cyclopropanecarboxamide] | > 7.5 µM | 0.048 µM | 0.008 µM |  | 
5 | C=CC(=O)N1C[C@H](C)N(c2nc(=O)n(-c3c(C)ccnc3C(C)C)c3nc(-c4c(F)cccc4NC(=O)C(F)F)c(Cl)cc23)C[C@H]1C (atropisomer, axis not shown; (M)) [Example 129-10, (M)-N-[2-[6-Chloro-4-[(2S,5R)-2,5-dimethyl-4-prop-2-enoyl-piperazin-1-yl]-1-(2-isopropyl-4-methyl-3-pyridyl)-2-oxo-pyrido[2,3-d]pyrimidin-7-yl]-3-fluoro-phenyl]-2,2-difluoro-acetamide] | > 7.5 µM | 0.049 µM | 0.041 µM |  | 
6 | C=CC(=O)N1C[C@H](C)N(c2nc(=O)n(-c3c(C)ccnc3C(C)C)c3nc(-c4ccccc4NC(=O)C(F)F)c(Cl)cc23)C[C@H]1C (atropisomer, axis not shown; (M)) [Example 129-11, (M)-N-[2-[6-Chloro-4-[(2S,5R)-2,5-dimethyl-4-prop-2-enoyl-piperazin-1-yl]-1-(2-isopropyl-4-methyl-3-pyridyl)-2-oxo-pyrido[2,3-d]pyrimidin-7-yl]phenyl]-2,2-difluoro-acetamide] | > 7.5 µM | 0.247 µM | 0.152 µM |  | 
7 | C=CC(=O)N1C[C@H](C)N(c2nc(=O)n(-c3c(C)ccnc3C(C)C)c3nc(-c4cc(O)cc5ccccc45)c(Cl)cc23)C[C@H]1C (atropisomer, axis not shown; (M)) [Example 132-1, (M)-6-Chloro-4-[(2S,5R)-2,5-dimethyl-4-prop-2-enoyl-piperazin-1-yl]-7-(3-hydroxy-1-naphthyl)-1-(2-isopropyl-4-methyl-3-pyridyl)pyrido[2,3-d]pyrimidin-2-one] |  |  | 0.053 µM | > 7.5 µM | 0.46 µM
8 | C=CC(=O)N1CCN(c2nc(=O)n(-c3c(C)ccnc3C(C)C)c3nc(-c4c(N)cccc4F)c(Cl)cc23)CC1CC#N (atropisomer, axis not shown; (M)) [Example 144-1, (M)-2-[4-[7-(2-Amino-6-fluoro-phenyl)-6-chloro-1-(2-isopropyl-4-methyl-3-pyridyl)-2-oxo-pyrido[2,3-d]pyrimidin-4-yl]-1-prop-2-enoyl-piperazin-2-yl]acetonitrile] |  |  | 0.166 µM | > 7.5 µM | 0.23 µM
9 | C=CC(=O)N1CCN(c2nc(=O)n(-c3c(C)ccnc3C(C)C)c3nc(Cl)c(Cl)cc23)CC1CC#N (atropisomer, axis not shown; (M)) [Example 144-2-2, (M)-2-[4-[6,7-Dichloro-1-(2-isopropyl-4-methyl-3-pyridyl)-2-oxo-pyrido[2,3-d]pyrimidin-4-yl]-1-prop-2-enoyl-piperazin-2-yl]acetonitrile] | 4 µM | 3.1 µM | 9.13 µM |  | 
10 | C=CC(=O)N1CCN(c2nc(=O)n(-c3c(C)ccnc3C(C)C)c3nc(-c4c(O)cccc4F)c(Cl)cc23)CC1CC#N (atropisomer, axis not shown; (M)) [Example 144-3, (M)-2-[4-[6-Chloro-7-(2-fluoro-6-hydroxy-phenyl)-1-(2-isopropyl-4-methyl-3-pyridyl)-2-oxo-pyrido[2,3-d]pyrimidin-4-yl]-1-prop-2-enoyl-piperazin-2-yl]acetonitrile] | > 7.5 µM | 2.41 µM | 0.166 µM |  | 
11 | C=CC(=O)N1CCN(c2nc(=O)n(-c3c(C)ccnc3C(C)C)c3nc(-c4ccccc4F)c(Cl)cc23)CC1CC#N (atropisomer, axis not shown; (M)) [Example 145-2, (M)-2-[4-[6-Chloro-7-(2-fluorophenyl)-1-(2-isopropyl-4-methyl-3-pyridyl)-2-oxo-pyrido[2,3-d]pyrimidin-4-yl]-1-prop-2-enoyl-piperazin-2-yl]acetonitrile] | > 7.5 µM |  | 0.344 µM |  | 1.68 µM
12 | C=CC(=O)N1CCN(c2nc(=O)n(-c3c(C)ccnc3C(C)C)c3nc(-c4ccccc4F)c(Cl)cc23)CC1CC#N (atropisomer, axis not shown; (M)) [Example 145-2-1, (M)-2-[4-[6-Chloro-7-(2-fluorophenyl)-1-(2-isopropyl-4-methyl-3-pyridyl)-2-oxo-pyrido[2,3-d]pyrimidin-4-yl]-1-prop-2-enoyl-piperazin-2-yl]acetonitrile] |  |  | 0.294 µM | > 7.5 µM | 0.356 µM
13 | C=CC(=O)N1CCN(c2nc(=O)n(-c3c(C)ccnc3C(C)C)c3nc(-c4ccccc4F)c(Cl)cc23)CC1CC#N (atropisomer, axis not shown; (M)) [Example 145-2-2, (M)-2-[4-[6-Chloro-7-(2-fluorophenyl)-1-(2-isopropyl-4-methyl-3-pyridyl)-2-oxo-pyrido[2,3-d]pyrimidin-4-yl]-1-prop-2-enoyl-piperazin-2-yl]acetonitrile] |  |  | 0.238 µM | > 7.5 µM | 0.213 µM
14 | C=CC(=O)N1C[C@H](C)N(c2nc(=O)n3c4nc(c(Cl)cc24)-c2ccccc2C/C=C/Cc2cccc(C(C)C)c2-3)C[C@H]1C (atropisomer, axis not shown; (M)) [Example 146-2, (M)-(9Z)-19-Chloro-22-((2S,5R)-2,5-dimethyl-4-(2-propenoyl)-1-piperazinyl)-3-(2-propanyl)-1,23,26-triazapentacyclo[16.6.2.0~2,7~.0~12,17~.0~21,25~]hexacosa-2,4,6,9,12,14,16,18,20,22,25-undecaen-24-one, (M)-19-chloro-22-((2S,5R)-2,5-dimethyl-4-(2-propenoyl)-1-piperazinyl)-3-(2-propanyl)-1,23,26-triazapentacyclo[16.6.2.0~2,7~.0~12,17~.0~21,25~]hexacosa-2,4,6,9,12,14,16,18,20,22,25-undecaen-24-one] | 6.51 µM | 0.038 µM | 0.028 µM |  | 
15 | C=CC(=O)N1CCN(c2nc(=O)n(-c3c(C)ccnc3C(C)C)c3nc(-c4ccccc4F)c(Cl)cc23)C2CC21 (atropisomer, axis not shown; (M)) [Example 222, (M)-4-(5-Acryloyl-2,5-diazabicyclo[4.1.0]heptan-2-yl)-6-chloro-7-(2-fluorophenyl)-1-(2-isopropyl-4-methylpyridin-3-yl)pyrido[2,3-d]pyrimidin-2(1H)-one] |  |  | 0.705 µM | 2.71 µM | 0.057 µM
16 | C=CC(=O)N1CCN(c2nc(=O)n(-c3c(C)ccnc3C(C)C)c3nc(-c4ccccc4F)c(Cl)cc23)[C@H]2C[C@H]21 (atropisomer, axis not shown; (M)) [Example 222-2, (M)-4-((1S,6R)-5-acryloyl-2,5-diazabicyclo[4.1.0]heptan-2-yl)-6-chloro-7-(2-fluorophenyl)-1-(2-isopropyl-4-methylpyridin-3-yl)pyrido[2,3-d]pyrimidin-2(1H)-one] |  |  | 0.014 µM | 2.52 µM | 0.048 µM
